Assay results reported in patent US20190247353A1, “ACNE STRAIN-SELECTIVE ANTIBACTERIAL AGENT” (MOMOTANI JUNTENKAN CO., LTD., priority 2016, published 2019).
≈ marks a conversion by molar mass, not a printed value. Like-named read-outs stand apart in the source and are kept apart here.

Key:
Assay type in all cases: cell-based, Propionibacterium acnes
HL043PA1 strain (RT5) = assay: MIC by broth microdilution method, HL043PA1 strain; conditions: for MIC: Cutibacterium acnes; for MIC against acne bacterium strain HL043PA1 strain (RT5): monoacylglycerols, Example 3, method as Example 1
Method: (§1) An MIC is measured herein according to the broth microdilution method which is the standard method of Japanese Society of Chemotherapy.
(§2) The antibacterial activity of a test substance was determined based on the minimum inhibitory concentration (MIC). An MIC was measured according to the broth microdilution method which is the standard method of Japanese Society of Chemotherapy.
(§3) One-loopful of each acne bacterium strain listed in Table 1 was scraped off and inoculated into 5 mL of a GAM broth slant agar medium (pH 7.0, Nissui Pharmaceutical Co., Ltd.).
The inoculated acne bacterium strain was precultured at 37° C. in a nitrogen atmosphere (anaerobic condition) for 48 hours. […]
(§4) Each fatty acid (Tokyo Chemical Industry Co., Ltd.) listed in Table 2 was dissolved in dimethylsulfoxide (DMSO) as a solvent such that the concentration became 10,000 μg/mL, and used as a test substance.
(§5) Each of strain suspensions (5.0×10^4 cfu/mL) was aliquoted in a 96-well round bottom microplate, each of the test substance (fatty acid concentration 10,000 μg/mL) was added at a 1/10 volume to the aliquot and mixed to prepare measurement samples (fatty acid concentration: 1,000 μg/mL). Measurement samples in 2-fold dilution series were prepared using the strain suspension (fatty acid concentration from 0.48 to 1,000 μg/mL).
The measurement samples were incubated under an anaerobic condition at 37° C. for 2 days. The presence or absence of a precipitation of test microbial cells after the incubation was examined and the minimum concentration at which the precipitation of microbial cells […] was regarded as the MIC (μg/mL) of the test substance against the acne bacterium strain.

HL110PA3 strain (RT6) = assay: MIC by broth microdilution method, HL110PA3 strain; conditions: for MIC: Cutibacterium acnes; for MIC against acne bacterium strain HL110PA3 strain (RT6): monoacylglycerols, Example 3, method as Example 1
Method: as §1, §2, §3
(§6) The inoculated acne bacterium strain was precultured at 37° C. in a nitrogen atmosphere (anaerobic condition) for 48 hours. The precultured microbial cells were diluted in a modified GAM broth liquid medium (pH 6.0) to a concentration of 5.0×10^4 cfu/mL (viable cell count per OD660=1 is 2.0×10^9 cfu/mL), to prepare strain suspensions.
as §4, §5
(§7) […] The presence or absence of a precipitation of test microbial cells after the incubation was examined and the minimum concentration at which the precipitation of microbial cells […] was regarded as the MIC (μg/mL) of the test substance against the acne bacterium strain.

[1] = system: HL053PA1 strain (RT4) and HL043PA1 strain (RT5) versus HL110PA3 strain (RT6); assay: Strain-selective antibacterial activity (average of MICRT6/MICRT4 and MICRT6/MICRT5)
Description: Herein, “acne strain-selective antibacterial activity” or “strain-selective antibacterial activity” means an index indicating better inhibition of growth of a dominant strain in acne patients compared to that of a dominant strain in healthy subjects. It is expressed by the average value of the values (MICRT6/MICRT4, and MICRT6/MICRTS) obtained by dividing the minimum inhibitory concentration (MIC) of an object substance with respect to the dominant strain in healthy subjects (RT6 strain) (MICRT6) respectively by the MIC of the object substance with respect to the dominant strain in acne patients (RT4 strain) (MICRT4), and by the MIC of the object substance with respect to the dominant strain in acne patients (RT5 strain) (MICRT5).
The strain-selective antibacterial activity of each test substance (Table 2, right-most column) was evaluated based on the following rating criteria (Table 3). When the strain-selective antibacterial activity is indicated by a numerical range, the rating was based on the minimum value thereof.

HL053PA1 strain (RT4) = assay: MIC by broth microdilution method, HL053PA1 strain; conditions: for MIC: Cutibacterium acnes; for MIC against acne bacterium strain HL053PA1 strain (RT4): monoacylglycerols, Example 3, method as Example 1
Method: as §1, §2, §3, §6, §4, §5, §7

[2] = 48 h, pH 6.0 modified GAM broth, anaerobic, 37° C., 2 days (Example 1), read-out: MIC against acne bacterium strain HL043PA1 strain (RT5)
[3] = 48 h, pH 6.0 modified GAM broth, anaerobic, 37° C., 2 days (Example 1), read-out: MIC against acne bacterium strain HL110PA3 strain (RT6)
[4] = 48 h, pH 6.0 modified GAM broth, anaerobic, 37° C., 2 days (Example 1), read-out: MIC against acne bacterium strain HL053PA1 strain (RT4)

Row | Compound | MIC (HL043PA1 strain (RT5); [2]) [µg/mL] | MIC (HL110PA3 strain (RT6); [3]) [µg/mL] | MIC (HL053PA1 strain (RT4); [4]) [µg/mL] | Strain-selective antibacterial activity ([1]; pH 6.0 (Example 1)) | also measured
1 | CCCCCCCCCC(=O)O [Capric acid (C10:0), Capric acid, reference compound] | 500 (≈ 2900 µM) | 250 (≈ 1450 µM) | 500 (≈ 2900 µM) | 0.50 | 
2 | CCCCCC(=O)O [Caproic acid (C6:0), Caproic acid, reference compound] |  |  |  | 1.0 | MIC (HL043PA1 strain (RT5); 48 h, pH 6, read-out: MIC against acne bacterium strain HL043PA1 strain (RT5)): 62.5 µg/mL (≈ 538 µM); MIC (HL110PA3 strain (RT6); 48 h, pH 6, read-out: MIC against acne bacterium strain HL110PA3 strain (RT6)): 62.5 µg/mL (≈ 538 µM); MIC (HL053PA1 strain (RT4); 48 h, pH 6, read-out: MIC against acne bacterium strain HL053PA1 strain (RT4)): 62.5 µg/mL (≈ 538 µM)
3 | CCCCCCCCCCCCCCCC(=O)OCC(O)CO (stereo not shown) [Monopalmitin] |  |  |  |  | MIC against acne bacterium strain HL043PA1 strain (RT5) (HL043PA1 strain (RT5)): 31.3 µg/mL (≈ 94.7 µM); MIC against acne bacterium strain HL110PA3 strain (RT6) (HL110PA3 strain (RT6)): 1000 µg/mL (≈ 3030 µM); Strain-selective antibacterial activity ([1]; monoacylglycerols, Example 3): 18; MIC against acne bacterium strain HL053PA1 strain (RT4) (HL053PA1 strain (RT4)): 250 µg/mL (≈ 756 µM)
4 | CCCCCCCCCCCCCCC(=O)OCC(O)CO (stereo not shown) [Monopentadecanoin] |  |  |  |  | MIC against acne bacterium strain HL043PA1 strain (RT5) (HL043PA1 strain (RT5)): 7.81 µg/mL (≈ 24.7 µM); MIC against acne bacterium strain HL110PA3 strain (RT6) (HL110PA3 strain (RT6)): 62.5 µg/mL (≈ 197 µM); Strain-selective antibacterial activity ([1]; monoacylglycerols, Example 3): 6.0; MIC against acne bacterium strain HL053PA1 strain (RT4) (HL053PA1 strain (RT4)): 15.6 µg/mL (≈ 49.3 µM)
5 | CCCCCCC(=O)O [Heptanoic acid (C7:0), Heptanoic acid, reference compound] | 125 (≈ 960 µM) | 125 (≈ 960 µM) | 125 (≈ 960 µM) | 1.0 | 
6 | CCCCCCCCCCCC(=O)O [Lauric acid (C12:0), Lauric acid, reference compound] | 31.3 (≈ 156 µM) | 15.6 (≈ 77.9 µM) | 15.6 (≈ 77.9 µM) |  | 
7 | Oc1cc(Cl)ccc1Oc1ccc(Cl)cc1Cl [Triclosan, reference compound] |  |  |  |  | MIC (HL043PA1 strain (RT5); read-out: MIC against acne bacterium strain HL043PA1 strain (RT5)): 1.95 µg/mL (≈ 6.73 µM); MIC (HL110PA3 strain (RT6); read-out: MIC against acne bacterium strain HL110PA3 strain (RT6)): 3.9 µg/mL (≈ 13.5 µM); Strain-selective antibacterial activity ([1]; control antibacterial agents, Comparative Example 1): 3.0; MIC (HL053PA1 strain (RT4); read-out: MIC against acne bacterium strain HL053PA1 strain (RT4)): 0.975 µg/mL (≈ 3.37 µM)

The next lines start with results.

Row | MIC (HL043PA1 strain (RT5); [2]) [µg/mL] | MIC (HL110PA3 strain (RT6); [3]) [µg/mL] | MIC (HL053PA1 strain (RT4); [4]) [µg/mL] | Compound | Strain-selective antibacterial activity ([1]; pH 6.0 (Example 1)) | also measured
8 | 62.5 (≈ 221 µM) | > 1000 | 500 (≈ 1770 µM) | CCCCCCCC/C=C\CCCCCCCC(=O)O [Oleic acid (C18:1), Oleic acid] | >9.0 | Strain-selective antibacterial activity at each pH ([1]; pH 6 (summary Table 10)): >9
9 | 31.3 (≈ 146 µM) | 15.6 (≈ 72.8 µM) | 15.6 (≈ 72.8 µM) | CCCCCCCCCCCCC(=O)O [Tridecanoic acid (C13:0), Tridecanoic acid, reference compound] | 0.75 | 
10 | 250 (≈ 1580 µM) | 250 (≈ 1580 µM) | 500 (≈ 3160 µM) | CCCCCCCCC(=O)O [Nonanoic acid (C9:0), Nonanoic acid, reference compound] | 0.75 | 
